The record followed here is PubChem BioAssay AID463074 (Broad Institute, 2010).

Calls of active or inactive are those of the source.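 How the source made its calls: active means AC50 no more than tenfold above the top dose tested, or full inhibition at every dose with a flat fit (cut at about 19 µM in these data); inconclusive means flat curve fit with inhibition between 30% and 70%, or poor fit; inactive means AC50 more than tenfold above the top dose tested.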

The subject of the assay is HMLE_sh_eGFP viability, CellTiter-Glo luminescence, 72 h. Put plainly: viability loss of HMLE_sh_eGFP cells – cell-based, luminescence, counter-screen for HMLE_sh_ECad selective toxicity project, dose response (AID 463074).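 Further: counterscreen control line to flag general toxicity for the HMLE_sh_ECad screen; potency for loss of viability as luminescence drops below DMSO wells.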
Regarding `c1ccc(N(c2ccccc2)c2nc(N3CCCC3)nc(-n3ccnc3)n2)cc1`, the AC50 is 6.28 µM. Consider `Cc1cc(C)nc(SCc2ccc(C(=O)N/N=C/c3cccc(O)c3O)cc2)n1`, for which the AC50 is 3.71 µM. In the case of `Cc1ccc(C(NC(=O)C(C)C)c2cc([N+](=O)[O-])c3cccnc3c2O)cc1` (configuration not stated) it was 3.16 µM; in that of `COc1cc(NC2CCCCC2O)c2nc(-c3ccc(Cl)cc3)ccc2c1` (configuration not stated), 5.65 µM; in that of `CC(C)(C)c1cc(CSC(=S)NC2CCS(=O)(=O)C2)c(Br)c(C(C)(C)C)c1` (configuration not stated), 3.8 µM. Consider `COc1cc2nc(Nc3ccc(C)c(Cl)c3)nc(N)c2cc1OC`, for which the AC50 is 6.97 µM.

As to `CCCc1cc(-c2nc(-c3ccc(Cl)cc3)cs2)ccn1`, the AC50 is 13 µM.

Turning to `O=C(Nc1nc(-c2cccc3ccccc23)cs1)c1ccc2c(c1)S(=O)(=O)c1ccccc1C2=O`, the AC50 was 11.3 µM.

On to `O=C(Nc1ccc(Cl)c(Cl)c1)Nc1ccccc1O`, for which the AC50 was 12.4 µM. `N#Cc1c([N+](=O)[O-])cc([N+](=O)[O-])cc1S(=O)(=O)Cc1ccccc1`: the AC50 is 3.62 µM. For `Cc1ccc2nc(NNC(=O)c3ccc(S(=O)(=O)N4CCc5ccccc5C4)cc3)sc2c1`, the AC50 is 3.91 µM. Next, `COc1ccccc1-c1sc2ccccc2c1C#CC1(O)CCCCC1`: 10.8 µM. `CC1(C)CC[C@@]2(C(=O)O)C(C1)C1=CCC3[C@@]4(C)CC[C@H](O)C(C)(C)C4CC[C@@]3(C)[C@]1(C)C[C@H]2O` (some centres not stated): the AC50 was 7.84 µM. As for `CCCC(C)c1nnc(NC(=O)COc2ccc3c(c2)OCO3)s1` (configuration not stated), the AC50 is 9.04 µM. For the molecule `O=C1NC(=O)N(Cc2ccccc2)C(=O)/C1=C\C=C\c1ccco1`, the AC50 is 1.93 µM. As for `O=C(NCCN1CCOCC1)NC1(C(F)(F)F)Oc2ccc(Cl)cc2O1` (configuration not stated), the half-maximal activity concentration (AC50) is 14 µM. As to `Cc1ccc2sc(N(CCCN(C)C)C(=O)c3ccc(S(=O)(=O)N4CCCCCC4)cc3)nc2c1C`, the half-maximal activity concentration (AC50) was 7.04 µM. Take `Cc1cc([N+](=O)[O-])ccc1-c1ccc(C2Nc3ccccc3C(=O)N2O)o1` (configuration not stated): the AC50 is 6.45 µM.

Turning to `CN1CCN(c2ccc(NC(=O)c3ccc(C#N)cc3F)cc2Cl)CC1`, the concentration at half-maximal activity (AC50) is 19.7 µM. Turning to `COc1ccc2nc(N=Nc3ccc(O)c4ccccc34)sc2c1`, the half-maximal activity concentration (AC50) is 3.27 µM.

In the case of `Cc1cc2c(cc1C)C(c1ccccc1OC(C)C)CC(=O)N2` (configuration not stated), the AC50 is 1.54 µM. With `COc1ccc([C@H]2Oc3cc(O)cc(O)c3C(=O)C2[C@@H]2C(=O)c3c(O)cc(O)cc3O[C@@H]2c2ccc(OC)cc2)cc1` (some centres not stated), the AC50 is 10.6 µM.

Turning to `CCC/C=C(\CCC)C(NS(=O)(=O)c1ccc(C(F)(F)F)cc1)c1ccccc1` (configuration not stated), the AC50 was 3.93 µM. As to `CC(C)COc1ccc(-c2nn(-c3ccccc3)cc2/C=C2/SC(=S)N(CC(=O)O)C2=O)cc1`, the AC50 is 4.51 µM. In the case of `Cc1ccc2sc(N(CCCN(C)C)C(=O)c3ccc(S(=O)(=O)N(C)C4CCCCC4)cc3)nc2c1C` it was 3.63 µM; in that of `O=c1[nH]c(/C(Cl)=C/c2cc(Cl)ccc2O)nc2cc(Cl)ccc12`, 2.37 µM; in that of `CC(C)(C)C1CCc2c(sc(NC(=O)CSc3ncn[nH]3)c2C#N)C1` (configuration not stated), 4.79 µM. For `COc1cc(/C=C(/C#N)c2nc3ccccc3[nH]2)ccc1OCC(=O)Nc1ccccc1C`, the AC50 was 1.06 µM. `O=C(O)CCN1C(=O)C(=C2CCCCCC2)SC1=S`: the AC50 is > 19.5 µM (inactive). On to `Cc1ccc2c(c1)c1ncn(CCC3=CCCCC3)c(=O)c1n2C`, for which the AC50 was 1.09 µM. Consider `CC(C)C[C@@H](CO)N(Cc1ccccc1)S(=O)(=O)N(Cc1ccccc1)[C@@H](CO)CC(C)C`, for which the AC50 was 3.87 µM. In the case of `COC(=O)Nc1nc2ccc(-c3n[nH]c(=O)c4ccccc34)cc2[nH]1` it was 1.88 µM. As for `CCOC(=O)C1=C(C)NC(C)=C(C(=O)OCC)C1c1ccccc1/C=C/C(=O)OC(C)(C)C`, the AC50 is 4.67 µM. In the case of `CCCCc1ccc(NC(=O)CSc2nc(=O)n(CCN(CC)CC)c3c2CCC3)cc1` it was 9.97 µM. With `O=C(Cc1ccccc1)Nc1cccc(NC(=O)c2ccccc2)c1`, the AC50 was 9.89 µM.

With `O=c1c2ccccc2nc(/C=C/c2ccccc2)n1-c1ccccc1O`, the AC50 was 10.7 µM. Next, `O=[N+]([O-])c1cc(S(=O)(=O)N2CCCCCC2)ccc1F`: 3.66 µM; `OCCNc1nc(Nc2ccc(Cl)c(Cl)c2)nc2ccccc12`: 6.96 µM; `O=C1c2c(Br)c(Br)c(Br)c(Br)c2C(=O)N1c1ccccn1`: 3.65 µM.

`C[C@H](CO)N1C[C@H](C)[C@@H](CN(C)C(=O)Nc2ccc(C(F)(F)F)cc2)Oc2c(NC(=O)Nc3ccc(C(F)(F)F)cc3)cccc2C1=O`: the AC50 is 4.26 µM. `Cc1cc(F)ccc1S(=O)(=O)Nc1ccccc1C(=O)Nc1ccccc1-c1nc2ccccc2[nH]1`: the AC50 is 5.51 µM.

Regarding `CCOC(=O)N1CCN(CCC(=O)c2ccc(Cl)cc2)CC1`, the AC50 is 14 µM. Next, `Cc1cccc(N(C)C(=O)c2cc3c(=O)[nH]c4ccc(C)cc4c3s2)c1`: 2.52 µM; `N#CC1(NC(=O)COC(=O)c2cc(O)c3ccccc3c2O)CCCCC1`: 9.15 µM; `Cc1ccc(OCCSc2nc(NC(C)C)nc(NC(C)C)n2)cc1`: 1.46 µM.

In the case of `Cc1ccc(COc2ccc(Br)cc2/C=N/O)cc1`, the AC50 is 5.23 µM. In the case of `Cc1ccc(C(=O)Nc2ncc(Cc3ccccc3)s2)o1` it was 1 µM. For `C=CCC[C@H](Cc1ccc(F)cc1)C(=O)OC[C@@H](Cc1c[nH]c2ccccc12)NC(=O)[C@@H](CC=C)CC(=O)N(CCO)Cc1ccccc1`, the AC50 is 4.34 µM. `Cc1ccccc1CSc1ccc(-c2ccc3c(c2)OCO3)nn1`: the AC50 is 7.5 µM.

On to `COc1ccc(CN2CCC(N(CCc3ccccc3)Cc3ccccc3)CC2)c(OC)c1`, for which the AC50 is 5.43 µM. Take `Cc1ccc2nc(-c3cccc(NS(C)(=O)=O)c3)cc(-c3ccccc3)c2c1`: the AC50 is 5.53 µM.

Take `CCOC(=O)c1[nH]c(C)c(C(=O)OCc2ccccc2F)c1C`: the AC50 is 1.03 µM. As for `O=C(Nc1ccccc1N1CCCCC1)c1ccc(Cl)c([N+](=O)[O-])c1`, the AC50 is 3.24 µM. On to `CSc1c(SCc2ccccc2)cnn(-c2ccccc2)c1=O`, for which the AC50 is 5.71 µM.

Take `O=c1[nH]c(CN2CCN(c3ccccn3)CC2)nc2c(Br)cc(Br)cc12`: the AC50 is 10.3 µM. On to `CCCCN(CC)S(=O)(=O)c1ccc(C(=O)N(CCCN(C)C)c2nc3cc(C)cc(C)c3s2)cc1`, for which the AC50 is 7.21 µM.

As to `CN(C)CCn1c2ccccc2c2nc3ccc([N+](=O)[O-])cc3cc21`, the AC50 is 15.6 µM. Take `Fc1cccc(-c2cc3nc4c(c(NCc5ccco5)n3n2)CCCC4)c1`: the AC50 is 7.77 µM.

With `COc1cccc(-c2sc3ccc(OC)cc3c2-c2ccc(OCCN(C)C)cc2)c1`, the concentration at half-maximal activity (AC50) is 3.59 µM. Turning to `O=C(Nc1ncc(S(=O)(=O)c2ccc([N+](=O)[O-])cc2)s1)c1ccc2ccccc2c1`, the AC50 is 3.61 µM.

As to `CC1=NN(c2ccccc2)C(=O)/C1=C/C=C/c1ccccc1`, the AC50 was 3.57 µM. In the case of `COc1ccc(C(=O)/C=C2/C(=O)Nc3ccccc32)cc1`, the AC50 is 6.73 µM. As for `C=C(C)COc1ccc(-c2[nH]ncc2Oc2ccc(OC)cc2)c(O)c1`, the AC50 is 5.99 µM. In the case of `O=C(NC(c1ccc(Cl)cc1)c1c(O)ccc2ccccc12)c1ccccc1` (configuration not stated) it was 2 µM; in that of `COC(=O)c1ccc(COc2ccccc2/C=C(\C#N)C(=O)Nc2c(C)cccc2C)cc1`, 2.86 µM.

As to `CC(C)Oc1ccc(C(=O)/C=C2/C(=O)Nc3ccccc32)cc1`, the AC50 is 6.4 µM.

Regarding `COc1cccc(/C=C/C(=C2/C(=O)N(c3ccccc3)N=C2C)c2ccc(Br)cc2)c1OC`, the AC50 was > 19.5 µM (inactive). With `CCCc1cc(-c2nc(N)ncc2-c2ccc3c(c2)OCCCO3)c(O)cc1OC`, the AC50 was 4.18 µM. Turning to `COc1ccc(NC(=O)c2ccc(COc3ccccc3Br)o2)c(OC)c1`, the concentration at half-maximal activity (AC50) was 3.67 µM. Next, `Cc1cccc(C(=O)Nc2ccc(C(=O)Nc3ccc(O)cc3)cc2)c1`: 5.08 µM. As for `COc1ccc(-c2nn(-c3ccccc3)cc2C(=O)N(C)CC(=O)Nc2cccc(F)c2)cc1`, the AC50 was 15 µM. Take `O=C1NC[C@@H](Cc2cccc3ccccc23)N(CCCCC2CCCCC2)C1=O`: the AC50 was 7.05 µM. In the case of `Cc1ccc(Nc2cc(C)nc(NCc3ccccc3)n2)cc1` it was 4.86 µM; in that of `COC(=O)c1ccc(/C=C/c2c(-c3ccsc3)sc3ccccc23)cc1`, 7.46 µM; in that of `C/C(=N\Nc1ccccc1)c1c(O)n(-c2ccccc2)c(=O)[nH]c1=O`, 2.45 µM.

`Cn1c(-c2ccsc2)c(-c2cccs2)c2cc(-c3ccc4[nH]ccc4c3)ccc21`: the AC50 was > 19.5 µM (inactive). Next, `O=C(c1ccccc1)c1nn(-c2ccc(Cl)cc2)c(=O)cc1C(F)(F)F`: 3.68 µM; `Cc1nc(-c2ccccc2)sc1C(=O)/C=C/c1ccc(Cl)cc1`: 7.62 µM. Consider `OCCN(CCO)CC(O)COc1ccc(C23CC4CC(CC(C4)C2)C3)cc1` (configuration not stated), for which the AC50 is 0.493 µM. Next, `CN1CCN(c2ccc(NC(=O)c3ccc(Cl)cc3)cn2)CC1`: > 19.5 µM (inactive). On to `FC(F)(F)c1cc(CCN2C(=S)NC[C@@H]2CC2CCCCC2)cc(C(F)(F)F)c1`, for which the concentration at half-maximal activity (AC50) is 7.29 µM. Turning to `Cc1[nH]n(-c2ccc([N+](=O)[O-])cc2)c(=O)c1C=NCCN1CCN(C(=O)C(C)C)CC1`, the AC50 is 5.14 µM. For `Oc1ccc(N=Nc2nc(-c3ccccc3)c(-c3ccccc3)[nH]2)cc1`, the AC50 was 4.53 µM. In the case of `Cc1cc(C)c(OCCCCN2CCNCC2)c(C)c1`, the AC50 is 16 µM.

Turning to `Cc1ccn2c(NCc3ccccc3)c(-c3cccc(SC4CCCCC4)c3)nc2c1`, the half-maximal activity concentration (AC50) is 4.45 µM. With `Cc1cc(N=Nc2ccc3ccccc3c2)ccc1O`, the AC50 is 6.83 µM.

With `CCC1(C)Cc2c(sc3nc(SC)n(Cc4ccccc4)c(=O)c23)CO1` (configuration not stated), the AC50 was 2.77 µM.

`Cn1nc(C(F)(F)F)c(C(=O)Nc2cccc(C(F)(F)F)c2)c1SCc1ccc(Cl)cc1`: the AC50 is 7.09 µM. As to `COc1ccc2sc(-c3ccc(N(C)C)cc3)c(C#Cc3cncn3C)c2c1`, the AC50 is 2.18 µM. With `COc1cc(SC#N)ccc1N=Cc1c(C)[nH]n(-c2ccc(C)c(C)c2)c1=O`, the AC50 was 4.52 µM. In the case of `Cc1ccc(Nc2cc(C)c3ccc(O)cc3n2)cc1C` it was 9.16 µM; in that of `COc1cccc(-c2sc3ccccc3c2-c2ccc(OCCN3CCCCC3)cc2)c1`, 1.41 µM.
